Test results as given in patent US20230158025A1 (UNIVERSITY OF UTAH RESEARCH FOUNDATION, priority 2020, published 2023).
“And” between values parts separate entries of the source, which are not always exact repeats. Equal entries are not always repeated. Where two headings read alike, the source gives them in different places.

Experiments:
[1] = aqueous kinetic solubility
[2] = rat microsomal stability (RLM); conditions: for half-life: rat, rat liver microsomes
PAMPA permeability = conditions: PAMPA
hGALK1m = target: T1, hGALK1m (Homo sapiens, UniProt P51570, E253A/K252A); assay: in vitro hGALK1 activity assay of the structure-based optimisation (Example 12, Tables 17-20); format: biochemical
T1 construct: made in house; host or cells: E. coli HMS174
Method: In vitro hGALK1 activity assays were performed as previously described. Liu et al., Bioorg. Med. Chem. Lett. 25(3): 721-727 (2015), which is incorporated by reference herein for the specific teachings thereof. The biochemical assay was performed by coupling the activity of recombinant human or mouse GALK1 to the Kinase-Glo Plus luminescent ATP detection kit, using ATP depletion as a measure of GALK1 turnover. Specifically, three μL/well of ATP substrate solution (35 μM ATP) in assay buffer (20 mM HEPES pH 8.0, 5 mM MgCl2, 60 mM NaCl, 1 mM DTT, 0.01% BSA final concentration) was dispensed into 1536-well assay plates (Greiner, white solid-bottom medium-binding plates). Aliquots of compound (23 nL solubilized in DMSO) were transferred to the assay plates using a Kalypsys 1536-well pintool such that 11 concentrations with 1/3 dilutions ranging from 57.4 μM-0.97 nM are tested. One μL/well of GALK-galactose solution (5 nM GALK1, 100 μM galactose) in assay buffer was then added, yielding a final reaction volume of 4 μL/well. Following a 1-hour room temperature incubation, 4 μL of Kinase-Glo Plus detection reagent was added to provide an ATP-dependent luminescent readout (final assay volume: 8 μL/well). Luminescence was detected using a ViewLux plate reader (PerkinElmer) after a 10-minute incubation, using a 1 second exposure time and 2× binning.
The in vitro hGALK1 activity assay was performed as previously described. Liu et al., Bioorg. Med. Chem. Lett. 25(3): 721-727 (2015). For the measurement of cellular Gal-1P reduction, compounds at different concentrations were added to cultured patient fibroblast at 80% confluency. After incubating the compounds for 16 hours, 10 mM galactose was added to the culture. After another 4 hours, cells were washed with cold PBS buffer 3× and harvested for gal-1P measurement, according to the previously published method. Liu et al., Bioorg. Med. Chem. Lett. 25(3): 721-727 (2015).

recombinant human GALK1 = recombinant human GALK1 (Homo sapiens, UniProt P51570); assay: hGALK1 biochemical activity assay (Kinase-Glo Plus, ATP depletion)
Outline: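 Turnover is measured as ATP depletion by Kinase-Glo Plus luminescence after a 1 h room-temperature reaction. Compounds span 11 concentrations, 57.4 μM–0.97 nM, in final 20 mM HEPES pH 8.0 with 5 mM MgCl2. The substrate solution held 35 μM ATP; the added solution held 5 nM human or mouse GALK1 and 100 μM galactose.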

recombinant mouse GALK1 = recombinant mouse GALK1 (Mus musculus, UniProt Q9R0N0); assay: mGALK1 biochemical activity assay (Kinase-Glo Plus, ATP depletion)
Outline: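 Recombinant GALK1 (5 nM) with 100 μM galactose; GALK1 turnover read as ATP depletion by Kinase-Glo Plus luminescence. Reaction ran 1 h at room temperature before detection reagent was added.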

[3] = ADME P: PAMPA permeability (class), Tables 17-19, class probably colour-coded, colour lost
[4] = Tables 18-19, read-out: Max Response (%)
[5] = Tables 18-20 and text of Example 12
[6] = Tables 2-15, 35 μM ATP, 100 μM galactose, 1 h, bracketed figure after some values (e.g. −1.2) is undefined and not reported, read-out: hGALK IC50
[7] = recombinant human GALK1, Kinase-Glo Plus ATP depletion, read-out: hGALK
[8] = Tables 2-15, 35 μM ATP, 100 μM galactose, 1 h, bracketed figure after some values is undefined and not reported, read-out: mGALK IC50
[9] = recombinant mouse GALK1, Kinase-Glo Plus ATP depletion, read-out: mGALK
[10] = 1 h, Table 17, read-out: Efficacy
[11] = Tables 18-19 and text of Example 12

recombinant mouse GALK1, sequence (Q9R0N0 whole entry): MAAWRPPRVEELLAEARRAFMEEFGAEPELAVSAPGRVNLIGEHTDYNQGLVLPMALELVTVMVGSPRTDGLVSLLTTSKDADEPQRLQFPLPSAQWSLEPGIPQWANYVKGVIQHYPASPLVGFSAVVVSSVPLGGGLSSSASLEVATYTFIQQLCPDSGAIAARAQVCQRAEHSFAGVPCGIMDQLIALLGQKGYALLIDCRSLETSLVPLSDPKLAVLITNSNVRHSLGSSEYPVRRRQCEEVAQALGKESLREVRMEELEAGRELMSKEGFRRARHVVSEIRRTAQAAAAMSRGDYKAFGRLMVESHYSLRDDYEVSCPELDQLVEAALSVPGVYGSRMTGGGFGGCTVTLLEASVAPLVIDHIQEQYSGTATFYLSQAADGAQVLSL
recombinant human GALK1, sequence (P51570 whole entry): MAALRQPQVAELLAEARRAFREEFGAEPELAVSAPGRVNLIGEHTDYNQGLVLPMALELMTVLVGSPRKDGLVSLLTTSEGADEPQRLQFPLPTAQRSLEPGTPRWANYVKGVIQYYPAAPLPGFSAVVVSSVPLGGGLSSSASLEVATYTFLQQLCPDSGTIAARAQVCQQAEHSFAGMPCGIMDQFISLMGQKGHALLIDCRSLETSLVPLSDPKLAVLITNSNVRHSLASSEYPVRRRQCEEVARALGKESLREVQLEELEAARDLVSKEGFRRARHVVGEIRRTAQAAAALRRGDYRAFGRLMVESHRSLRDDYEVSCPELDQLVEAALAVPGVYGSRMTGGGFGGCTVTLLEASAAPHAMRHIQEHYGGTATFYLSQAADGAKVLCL
T1 sequence (P51570 whole entry K252A/E253A): as the sequence (P51570 whole entry) above, with K252A, E253A counted along it

SMILES: COc1ccc(C2N=C(Nc3nc4ccc(F)cc4o3)NC(C)=C2C(=O)Nc2cc(C(=O)O)ccn2)c(Cl)c1 (racemic) [Compound 46, 2-(4-(2-chloro-4-methoxyphenyl)-2-((6-fluorobenzo[d]oxazol-2-yl)amino)-6-methyl-1,4-dihydropyrimidine-5-carboxamido)isonicotinic acid]
- Sol. [1]: 8.3 µg/mL
- Metab. Stabil. (m) ([2]; microsomal half-life): >30 m
- half-life [2]: < 10 min
- Papp (PAMPA permeability; [3]): < 10 ×10⁻⁶ cm/s
- change of potency versus parent compound (in words) (hGALK1m): little effect
- Emax (hGALK1m; [4]): 100%
- IC50 (hGALK1m; [5]): 300 nM
- IC50 (recombinant human GALK1; [6]): 430 nM
- IC50 (recombinant human GALK1; [7]): 430 nM
- IC50 (recombinant mouse GALK1; [8]): 3060 nM
- IC50 (recombinant mouse GALK1; [9]): 3060 nM

SMILES: CC1=C(C(=O)Nc2cc(C(=O)O)ccn2)C(c2ccc(C)cc2Cl)N=C(Nc2nc3ccc(F)cc3o2)N1 (racemic) [Compound 50, 2-(4-(2-chloro-4-methylphenyl)-2-((6-fluorobenzo[d]oxazol-2-yl)amino)-6-methyl-1,4-dihydropyrimidine-5-carboxamido)isonicotinic acid]
- Sol. [1]: 2.8 µg/mL
- Metab. Stabil. (m) ([2]; microsomal half-life): >30 m
- half-life [2]: < 10 min
- Papp (PAMPA permeability; [3]): < 10 ×10⁻⁶ cm/s
- Papp (PAMPA permeability; Perm. (1 × 10^−6 cm/sec)): < 1.5 ×10⁻⁶ cm/s
- Emax (hGALK1m; [4]): 100%
- IC50 (hGALK1m; [5]): 136 nM
- fold improvement of potency (IC50) versus parent compound (hGALK1m; increase in potency relative to the unsubstituted parent): 2 fold
- IC50 (recombinant human GALK1; [6]): 390 nM
- IC50 (recombinant human GALK1; [7]): 390 nM
- IC50 (recombinant mouse GALK1; [8]): 3060 nM
- IC50 (recombinant mouse GALK1; [9]): 3060 nM

SMILES: CC1=C(C(=O)NCc2cnn(C)c2)C(c2ccc(C)cc2Cl)N=C(Nc2nc3cccc(N)c3o2)N1 (racemic) [Compound 83, 2-((7-aminobenzo[d]oxazol-2-yl)amino)-4-(2-chloro-4-methylphenyl)-6-methyl-N-((1-methyl-1H-pyrazol-4-yl)methyl)-1,4-dihydropyrimidine-5-carboxamide]
- Sol. [1]: 4.47 µg/mL
- Metab. Stabil. (m) ([2]; microsomal half-life): 14.13 m
- Papp (PAMPA permeability; Perm. (1 × 10^−6 cm/sec)): 25.3 ×10⁻⁶ cm/s
- IC50 (hGALK1m; [5]): 47 nM
- IC50 (recombinant human GALK1; [6]): 220 nM
- IC50 (recombinant human GALK1; [7]): 220 nM
- IC50 (recombinant mouse GALK1; [8]): 2170 nM
- IC50 (recombinant mouse GALK1; [9]): 2170 nM

SMILES: CCn1cc(CNC(=O)C2=C(C)NC(Nc3nc4ccc(F)c(N)c4o3)=NC2c2ccc(C)cc2Cl)cn1 (racemic) [Compound 125, 2-((7-amino-6-fluorobenzo[d]oxazol-2-yl)amino)-4-(2-chloro-4-methylphenyl)-N-((1-ethyl-1H-pyrazol-4-yl)methyl)-6-methyl-1,4-dihydropyrimidine-5-carboxamide]
- Sol. ([1]; aqueous kinetic solubility): <1 µg/mL
- Metab. Stabil. (m) ([2]; microsomal stability half-life): 14.08 m
- Papp (PAMPA permeability; Perm. (1 × 10^−6 cm/sec)): 410 ×10⁻⁶ cm/s
- IC50 (hGALK1m; [5]): 23 nM and 22 nM
- IC50 (recombinant human GALK1; [6]): 50 nM
- IC50 (recombinant human GALK1; [7]): 50 nM
- IC50 (recombinant mouse GALK1; [8]): 610 nM
- IC50 (recombinant mouse GALK1; [9]): 610 nM

SMILES: CC1=C(C(=O)Nc2cc(C(=O)O)ccn2)C(c2ccccc2Cl)N=C(Nc2nc3ccccc3o2)N1 (racemic) [Compound 194, 2-(2-(benzo[d]oxazol-2-ylamino)-4-(2-chlorophenyl)-6-methyl-1,4-dihydropyrimidine-5-carboxamido)isonicotinic acid]
- Sol. ([1]; aqueous kinetic solubility): >74 µg/mL
- Metab. Stabil. (m) ([2]; microsomal stability half-life): >30 m
- half-life [2]: < 10 min
- Papp (PAMPA permeability; [3]): < 10 ×10⁻⁶ cm/s
- Papp (PAMPA permeability; Perm. (1 × 10^−6 cm/sec)): < 1 ×10⁻⁶ cm/s
- Emax (hGALK1m; [10]): 88%
- IC50 (hGALK1m; [5]): 970 nM
- IC50 (recombinant human GALK1; [6]): 1080 nM
- IC50 (recombinant human GALK1; [7]): 1080 nM
- IC50 (recombinant mouse GALK1; [8]): 6850 nM
- IC50 (recombinant mouse GALK1; [9]): 6850 nM

SMILES: CC1=C(C(=O)NCc2cn(C)cn2)C(c2ccccc2Cl)N=C(Nc2nc3ccccc3o2)N1 (racemic) [Compound 233, 2-(benzo[d]oxazol-2-ylamino)-4-(2-chlorophenyl)-6-methyl-N-((1-methyl-1H-imidazol-4-yl)methyl)-1,4-dihydropyrimidine-5-carboxamide]
- Sol. ([1]; aqueous kinetic solubility): 26.6 µg/mL
- Metab. Stabil. (m) ([2]; microsomal stability half-life): 14.56 m
- half-life [2]: < 10 min
- Papp (PAMPA permeability; [3]): < 10 ×10⁻⁶ cm/s
- Papp (PAMPA permeability; Perm. (1 × 10^−6 cm/sec)): 868 ×10⁻⁶ cm/s
- Emax (hGALK1m; [10]): 90%
- IC50 (hGALK1m; [11]): 770 nM
- IC50 (recombinant human GALK1; [6]): 1090 nM
- IC50 (recombinant human GALK1; [7]): 1090 nM
- IC50 (recombinant mouse GALK1; [8]): 7690 nM
- IC50 (recombinant mouse GALK1; [9]): 7690 nM

SMILES: CC1=C(C(=O)Nc2cc(C(=O)O)ccn2)C(c2ccccc2Cl)N=C(Nc2nc3c(F)cccc3o2)N1 (centres unmarked) [Compound 8, 2-(4-(2-chlorophenyl)-6-methyl-2-((4-fluorobenzo[d]oxazol-2-yl)amino)-1,4-dihydropyrimidine-5-carboxamido)isonicotinic acid]
- Emax (hGALK1m; [4]): 100%
- IC50 (hGALK1m; [11]): 3300 nM
- IC50 (recombinant human GALK1; [7]): 3850 nM
- IC50 (recombinant mouse GALK1; [8]): 21700 nM
- IC50 (recombinant mouse GALK1; [9]): 21700 nM

SMILES: CC1=C(C(=O)Nc2cc(C(=O)O)ccn2)C(c2ccccc2Cl)N=C(Nc2nc3cc(F)ccc3o2)N1 (centres unmarked) [Compound 13, 2-(4-(2-chlorophenyl)-2-((5-fluorobenzo[d]oxazol-2-yl)amino)-6-methyl-1,4-dihydropyrimidine-5-carboxamido)isonicotinic acid]
- half-life [2]: < 10 min
- Papp (PAMPA permeability; [3]): < 10 ×10⁻⁶ cm/s
- Emax (hGALK1m; [4]): 100%
- IC50 (hGALK1m; [11]): 3600 nM
- IC50 (recombinant human GALK1; [6]): 3430 nM
- IC50 (recombinant mouse GALK1; [8]): 17200 nM
- IC50 (recombinant mouse GALK1; [9]): 17200 nM

SMILES: CC1=C(C(=O)Nc2cc(C(=O)O)ccn2)C(c2cccc(F)c2Cl)N=C(Nc2nc3ccc(F)cc3o2)N1 (centres unmarked) [Compound 48, 2-(4-(2-chloro-3-fluorophenyl)-2-((6-fluorobenzo[d]oxazol-2-yl)amino)-6-methyl-1,4-dihydropyrimidine-5-carboxamido)isonicotinic acid]
- half-life [2]: < 10 min
- Papp (PAMPA permeability; [3]): < 10 ×10⁻⁶ cm/s
- change of potency versus parent compound (in words) (hGALK1m): compromised the potency
- Emax (hGALK1m; [4]): 100%
- IC50 (hGALK1m; [11]): 1800 nM
- IC50 (recombinant human GALK1; [6]): 4850 nM
- IC50 (recombinant human GALK1; [7]): 4850 nM
- IC50 (recombinant mouse GALK1; [8]): 15300 nM
- IC50 (recombinant mouse GALK1; [9]): 15300 nM

SMILES: CC1=C(C(=O)Nc2ncc(C(=O)O)s2)C(c2ccccc2Cl)N=C(Nc2nc3ccccc3o2)N1 (centres unmarked) [Compound 199, 2-(2-(benzo[d]oxazol-2-ylamino)-4-(2-chlorophenyl)-6-methyl-1,4-dihydropyrimidine-5-carboxamido)thiazole-5-carboxylic acid]
- Sol. ([1]; aqueous kinetic solubility): >75 µg/mL
- Metab. Stabil. (m) ([2]; microsomal stability half-life): >30 m
- half-life [2]: < 10 min
- Perm. (1 × 10^−6 cm/sec) (PAMPA permeability): <1 1 × 10^−6 cm/sec
- Papp (PAMPA permeability; [3]): < 10 ×10⁻⁶ cm/s
- Emax (hGALK1m; [10]): 91%
- IC50 (hGALK1m; Table 17, amide group optimization, no unit in table): 1700 nM
- IC50 (recombinant human GALK1; [6]): 1720 nM
- IC50 (recombinant human GALK1; [7]): 1720 nM

SMILES: CC1=C(C(=O)Nc2cc(C(=O)O)ccn2)[C@@H](c2ccccc2Cl)N=C(Nc2nc3ccccc3o2)N1 [S-enantiomer of Compound 194]
- IC50 (hGALK1m; [5]): 300 nM
